# How the values were obtained:
# MCF7 = experiment: Cytotoxicity on MCF7 monolayers (MTT assay); conditions: for cytotoxicity at 50 µM: Homo sapiens, MCF7, 72 h, read-out: Mean of % cytotoxicity ± SD; for % inhibition 2D / Mean of % cytotoxicity ± SD: MCF7 monolayer; for % inhibition 2D: 50 µM; for Mean of % cytotoxicity ± SD: 50µM, 72 h, MTT
# MCF7 3D spheroids = experiment: Cytotoxicity on MCF7 3D multicellular spheroids (acid phosphatase method); conditions: for cytotoxicity at 50 µM: Homo sapiens, MCF7, 120 h, read-out: Mean of % cytotoxicity ± S.D; for % inhibition 3D / Mean of % cytotoxicity ± S.D: MCF7 3D spheroids; for % inhibition 3D: 50 µM; for Mean of % cytotoxicity ± S.D: 50µM, 120 h
# Protocol: Eighty pre-plated synthetic chemical compounds were screened on two human cell lines: MCF7 (ATCC® HTB-22™), a Caucasian breast adenocarcinoma model, and hTERT-RPE-1 (ATCC® CRL-4000™), a normal retinal epithelial cell line immortalized by hTERT telomerase. […] The cells were cultured in DMEM-F12 medium supplemented with L-glutamine and 10% fetal bovine serum, all were purchase from Biowest (Biotechnology company in Nuaillé, France), and maintained in a controlled incubator environment set at 37 °C with 5% CO2 and 95% humidity.
# 3-D spheroid models were generated from MCF7 cancer and hTERT-RPE1 normal cells were seeded at 10,000 and 50,000 cells/well, respectively, in poly-HEMA coated round bottom plates according to the protocol previously mentioned[44]. The cells were incubated for 5 days to generate the spheroids with diameter of 500 ± 20 µm. The spheroids were imaged using Olympus S100, U-CMAD3 camera connected to Olympus inverted microscope and the diameter of the spheroids was measured using Cellscen-Entry software. Test compounds were added in triplicate to a final concentration of 50 µM and were incubated for 120 h. […] At the end of incubation, cytotoxicity was determined using the acid phosphatase method[45]. After washing twice with 250 μL PBS buffer, 100 μL of 0.1 M sodium citrate, 0.1% Triton X-100, p-nitrophenylphosphate (2 mg/ml) (Pierce Biotechnology Inc., Rockford, IL) was added to each well and incubated for 1.5 h at 37 °C. After incubation, 10 μL of 1N NaOH stop solution was added to each well, and absorbance was read at 405 nm. Cytotoxicity was calculated according to the following equation:
SMILES,cytotoxicity at 50 µM (MCF7) [%],cytotoxicity at 50 µM (MCF7 3D spheroids) [%],% inhibition 2D (MCF7) [%],Mean of % cytotoxicity ± SD (MCF7) [%],% inhibition 3D (MCF7 3D spheroids) [%],Mean of % cytotoxicity ± S.D (MCF7 3D spheroids) [%]
"COc1ccc(NNC(=O)c2c(-c3c(F)cccc3Cl)noc2C)cc1 [D10, 3-(2-chloro-6-fluorophenyl)-N'-(4-methoxyphenyl)-5-methyl-4-isoxazolecarbohydrazide]",52.1 ± 2.11,51.7 ± 1.1,–,–,–,–
"CCCc1cc(=O)oc2cc(OC(C)C(=O)NNS(=O)(=O)c3cccc(C(F)(F)F)c3)ccc12 (stereo not shown) [D11, N'1-{2-[(2-oxo-4-propyl-2H-chromen-7-yl)oxy]propanoyl}-3-(trifluoromethyl)benzene-1-sulfonohydrazide]",35.5 ± 0.35,40.6 ± 0.11,–,–,–,–
"CCOC1=NC(=Cc2[nH]c(OCC)c(CC(=O)OC)c2C(=O)OC)C(C(=O)OC)=C1CC(=O)OC [E02, methyl 5-ethoxy-2-{[5-ethoxy-3-(methoxycarbonyl)-4-(2-methoxy-2-oxoethyl)-2H-pyrrol-2-yliden]methyl}-4-(2-methoxy-2-oxoethyl)-1H-pyrrole-3-carboxylate]",83.2 ± 1.2,-10.8 ± 0.7,–,–,–,–
"CC(C)(C)SCCNc1nc(Oc2ccc(F)cc2)nc(Oc2ccc(F)cc2)n1 [E03, N2-[2-(tert-butylthio)ethyl]-4,6-di(4-fluorophenoxy)-1,3,5-triazin-2-amine]",80.3 ± 1.5,41.8 ± 0.6,–,–,–,–
"CCOc1nc2ccccc2nc1OCC [E04, 2,3-diethoxyquinoxaline]",62.6 ± 3.1,42 ± 1.1,–,–,–,–
"CN(C)C=C1Cc2ccccc2C1=O [E05, 2-[(dimethylamino)methylidene]indan-1-one]",47.5 ± 6.2,41.4 ± 3.6,–,–,–,–
"N#CC1(c2ccccc2)N=C2C=CC=CN2N=C1c1ccccc1 (stereo not shown) [E06, 2,3-diphenyl-2H-pyrido[1,2-b][1,2,4]triazine-2-carbonitrile]",26.7 ± 1.18,55 ± 1.6,–,–,–,–
"NS(=O)(=O)c1ccc(NNC(=O)c2cccs2)cc1 [E07, 4-[2-(2-thienylcarbonyl)hydrazino]benzenesulfonamide]",0,36.2 ± 0.35,–,–,–,–
"NC(=NOC(=O)Nc1ccc(OC(F)(F)F)cc1)c1cnccn1 [E08, N'-({[4-(trifluoromethoxy)anilino]carbonyl}oxy) pyrazine-2-carboximidamide]",–,–,84.1,84.1 ± 1.6,40.2,40.2 ± 3.8
"COc1ccc(Cl)cc1NC(=O)Nc1ccc(N2CCCCC2)cc1 [E09, N-(5-chloro-2-methoxyphenyl)-N'-(4-piperidinophenyl) urea]",28.3 ± 0.9,50.7 ± 0.52,–,–,–,–
"CC1(C)C=Cc2cc(C(N)=NOC(=O)c3cccc(C(F)(F)F)c3)ccc2O1 [E10, O6-[3-(trifluoromethyl)benzoyl]-2,2-dimethyl-2H-chromene-6-carbohydroximamide]",100 ± 0.003,67.5 ± 0.5,–,–,–,–
"CC1(C)CC(=O)C2=C(C1)OC(N)=C(C#N)C2c1ccc(Cl)cc1 (stereo not shown) [E11, 2-amino-4-(4-chlorophenyl)-7,7-dimethyl-5-oxo-5,6,7,8-tetrahydro-4H-chromene-3-carbonitrile]",93.7 ± 1.29,66.4 ± 1.9,–,–,–,–
"O=C1C2CCN(CC2)C1CSc1ccc(Cl)cc1 (stereo not shown) [F02, 2-{[(4-chlorophenyl)thio]methyl}quinuclidin-3-one]",100 ± 0.003,52 ± 2.9,–,–,–,–
"O=C1C2CC=CCC2C(=O)N1c1cccc(N2C(=O)C3CC=CCC3C2=O)n1 (stereo not shown) [F04, 2-[6-(1,3-dioxo-2,3,3a,4,7,7a-hexahydro-1H-isoindol-2-yl)-2-pyridyl]-2,3,3a,4,7,7a-hexahydro-1H-isoindole-1,3-dione]",46.9 ± 2.6,29.8 ± 1.23,–,–,–,–
"O=C1CNC(=S)N1CCOc1ccc(Cl)cc1 [F05, 3-[2-(4-chlorophenoxy)ethyl]-2-thioxoimidazolidin-4-one]",96.9 ± 1.4,31.6 ± 0.8,–,–,–,–
"Cc1ccc(S(=O)(=O)CCNC(=O)c2c(-c3c(Cl)cccc3Cl)noc2C)cc1 [F07, N4-{2-[(4-methylphenyl)sulfonyl]ethyl}-3-(2,6-dichlorophenyl)-5-methylisoxazole-4-carboxamide]",4.4 ± 0.118,54.2 ± 0.53,–,–,–,–
"OC(CSc1ccccc1)CN1CCN(c2nccc(C(F)(F)F)n2)CC1 (stereo not shown) [F08, 1-(phenylthio)-3-{4-[4-(trifluoromethyl)pyrimidin-2-yl]piperazino}propan-2-ol]",100 ± 0.003,61.6 ± 0.8,–,–,–,–
"Cc1nnsc1-c1nnc(-c2ccccc2C(F)(F)F)o1 [F09, 2-(4-methyl-1,2,3-thiadiazol-5-yl)-5-[2-(trifluoromethyl)phenyl]-1,3,4-oxadiazole]",9.9 ± 3.8,14.2 ± 0.5,–,–,–,–
"O=C1C(=C2NC(c3ccccn3)C3C(=O)N(c4ccc(OC(F)(F)F)cc4)C(=O)C23)C(=O)c2ccccc21 (stereo not shown) [F10, 4-(1,3-dioxo-2,3-dihydro-1H-inden-2-yliden)-6-(2-pyridyl)-2-[4-(trifluoromethoxy)phenyl]perhydropyrrolo [3,4-c]pyrrole-1,3-dione]",100 ± 0.003,60.3 ± 1.1,–,–,–,–
"NS(=O)(=O)c1cccc(NC(=O)Nc2ccccc2)c1 [F11, 3-[(anilinocarbonyl)amino]benzenesulfonamide]",0,60.4 ± 0.77,–,–,–,–

SMILES,cytotoxicity at 50 µM (MCF7) [%],cytotoxicity at 50 µM (MCF7 3D spheroids) [%],% inhibition 2D (MCF7) [%],Mean of % cytotoxicity ± SD (MCF7) [%],% inhibition 3D (MCF7 3D spheroids) [%],Mean of % cytotoxicity ± S.D (MCF7 3D spheroids) [%]
"Cn1c(SCC(=O)NN2CC(=O)N(c3cccc(Cl)c3)CC2=O)nnc1-c1ccncc1 [G02, N-[4-(3-chlorophenyl)-2,5-dioxopiperazino]-2-{[4-methyl-5-(4-pyridinyl)-4H-1,2,4-triazol-3-yl]sulfanyl}acetamide]",0,-9.9 ± 0.8,–,–,–,–
"COc1cc(C(F)(F)F)nc2ccc(C#CCOC(=O)c3ccccc3)cc12 [G03, 3-[4-methoxy-2-(trifluoromethyl)-6-quinolyl]prop-2-ynyl benzoate]",49.8 ± 2.9,21.3 ± 0.6,–,–,–,–
"Cc1nc(-c2ccc(S(=O)(=O)Nc3ccc4c(c3)OCCO4)s2)cs1 [G04, N-(2,3-dihydro-1,4-benzodioxin-6-yl)-5-(2-methyl-1,3-thiazol-4-yl)-2-thiophenesulfonamide]",0,6.3 ± 0.3,–,–,–,–
COC(=O)c1sccc1S(=O)(=O)Nc1ccc(-c2cn3c(n2)SCC3)cc1 [G05],–,–,65.7,65.7 ± 1.0,35.1,35.1 ± 0.6
"O=C(NNC1=Nc2ccccc2SC1)c1ccc(F)cc1 [G06, N'-(2H-1,4-benzothiazin-3-yl)-4-fluorobenzohydrazide]",93.4 ± 1.6,52.3 ± 2.3,–,–,–,–
"NS(=O)(=O)c1cccc(NC(=O)c2cccnc2Oc2ccccc2)c1 [G07, N-[3-(aminosulfonyl)phenyl]-2-phenoxynicotinamide]",0,35.1 ± 0.77,–,–,–,–
"N#CCc1ccc(NC(=O)Nc2ccc(OC(F)(F)F)cc2)cc1 [G08, N-[4-(cyanomethyl)phenyl]-N'-[4-(trifluoromethoxy)phenyl]urea]",82.8 ± 0.76,56.2 ± 3,–,–,–,–
"Cc1c(NCN2C(=O)CCC2=O)cc2c(c1[N+](=O)[O-])C(C)(C)CC2(C)C [G09, 1-{[(1,1,3,3,6-pentamethyl-7-nitro-2,3-dihydro-1H-inden-5-yl)amino]methyl}pyrrolidine-2,5-dione]",100 ± 0.005,66.5 ± 1.1,–,–,–,–
"ON=Cc1ccc(-c2ccccc2OC(F)(F)F)o1 [G10, 5-[2-(trifluoromethoxy)phenyl]-2-furaldehyde oxime]",100 ± 0.003,54.4 ± 1.2,–,–,–,–
"CC(=O)Nc1ccc(C=C(C#N)C(N)=O)cc1 [G11, 3-[4-(acetylamino)phenyl]-2-cyanoacrylamide]",15.6 ± 1.7,60.8 ± 1.23,–,–,–,–
"Clc1ccc(OCCCCCCCCCCOc2ccc(Cl)cc2)cc1 [H02, 1,10-bis(4-chlorophenoxy)decane]",68.7 ± 2.7,3.5 ± 0.8,–,–,–,–
"Cc1ccc2[nH]c(SCC(=O)NC3Cc4ccccc4C3)nc2c1 [H03, N-(2,3-dihydro-1H-inden-2-yl)-2-[(5-methyl-1H-benzimidazol-2-yl)thio]acetamide]",88.5 ± 5.8,15.8 ± 0.11,–,–,–,–
"O=C(Nc1ccc2c(c1)COCO2)c1cc2ccccc2oc1=O [H04, N3-(4H-1,3-benzodioxin-6-yl)-2-oxo-2H-chromene-3-carboxamide]",46 ± 0.8,28 ± 0.6,–,–,–,–
"CS(=O)(=O)CC(N)=S [H05, 2-(methylsulfonyl)ethanethioamide]",24.1 ± 1.17,19.3 ± 0.5,–,–,–,–
"O=C(O)c1ccc(-c2ccsc2)cc1 [H06, 4-(3-thienyl)benzoic acid]",7.8 ± 0.23,26.1 ± 0.4,–,–,–,–
"Cc1cc(Br)c(NC(=O)C(Cl)Cl)c(Br)c1 [H07, N1-(2,6-dibromo-4-methylphenyl)-2,2dichloroacetamide]",65.3 ± 2.3,40.6 ± 0.7,–,–,–,–
"CC(C)N1CC(COc2ccc(Br)cc2)OC1=O (stereo not shown) [H08, 5-[(4-bromophenoxy)methyl]-3-isopropyl-1,3-oxazolan-2-one]",18 ± 2.23,49 ± 1.4,–,–,–,–
"CCOC(=O)N1CCC(=NNc2ccc([N+](=O)[O-])cc2[N+](=O)[O-])CC1 [H10, ethyl 4-[2-(2,4-dinitrophenyl)hydrazono]piperidine-1-carboxylate]",27.5 ± 1.4,60.6 ± 1.1,–,–,–,–
"FC(F)(F)c1ccnc(NCc2ccco2)n1 [H11, N2-(2-furylmethyl)-4-(trifluoromethyl)pyrimidin-2-amine]",0,68.5 ± 0.65,–,–,–,–

# Reference: article PMC12663132, “Assessment of cytotoxicity of some synthetic compounds against breast carcinoma spheroids with subsequent analysis of pro-apoptotic and gene expression” (Scientific Reports, 2025)
